The source of these data is article PMC7155755, “Binding of the Human 14-3-3 Isoforms to Distinct Sites in the Leucine-Rich Repeat Kinase 2” (Frontiers in Neuroscience, 2020).

Square brackets hold non-standard residues; d marks the D form. Peptide text beside a SMILES is read from it. pS = N[C@@H](COP(=O)(O)O)C(=O)O

Holding throughout (assay): Fluorescence polarization (FP) direct binding assay
On the technique in general: Polarisation of emitted light reports the rotation of a fluorescent probe.

One test addresses T1, human 14-3-3 isoform β (Homo sapiens, UniProt P31946).
T1 construct: MBP (cleaved yes); made in house; host or cells: E. coli BL21DE3
Conditions: fluorescein-labeled peptide 1 nM, 20 mM MOPS pH 7, 150 mM NaCl, 0.005% CHAPS, at least three independent measurements, read-out: Binding affinity (KD) toward 14-3-3 isoform β. The essentials: (§1)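 Untagged human 14-3-3 isoforms (MBP removed) titrated from ≥5 μM down to picomolar against 1 nM fluorescein-labeled LRRK2-derived peptides, phosphorylated or not, in 20 mM MOPS pH 7, 150 mM NaCl, 0.005% CHAPS. KD from sigmoidal fit of FP (mPol) versus log protein concentration; duplicates, ≥2 independent replicates.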

Another test addresses T2, human 14-3-3 isoform ζ (Homo sapiens, UniProt P63104).
T2 construct: MBP (cleaved yes); made in house; host or cells: E. coli BL21DE3
Conditions: fluorescein-labeled peptide 1 nM, 20 mM MOPS pH 7, 150 mM NaCl, 0.005% CHAPS, at least three independent measurements, read-out: Binding affinity (KD) toward 14-3-3 isoform ζ. In outline:
as §1

Another test concerns the target T3, human 14-3-3 isoform ϵ (Homo sapiens, UniProt P62258).
T3 construct: MBP (cleaved yes); made in house; host or cells: E. coli BL21DE3
T3 sequence (P62258 1-255): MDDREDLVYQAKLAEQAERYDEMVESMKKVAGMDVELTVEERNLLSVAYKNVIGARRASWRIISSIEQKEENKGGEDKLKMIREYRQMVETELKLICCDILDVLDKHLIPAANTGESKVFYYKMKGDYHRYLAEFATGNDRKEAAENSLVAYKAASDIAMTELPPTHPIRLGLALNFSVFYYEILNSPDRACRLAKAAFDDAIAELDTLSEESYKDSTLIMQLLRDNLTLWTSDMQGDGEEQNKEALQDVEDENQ
Conditions: fluorescein-labeled peptide 1 nM, 20 mM MOPS pH 7, 150 mM NaCl, 0.005% CHAPS, bound given in μM, read-out: Binding affinity (KD) toward 14-3-3 isoform ϵ. In outline:
as §1

Another test deals with T4, human 14-3-3γ (Homo sapiens, UniProt P61981).
T4 construct: MBP (cleaved yes); made in house; host or cells: E. coli BL21DE3
T4 sequence (P61981 1-247): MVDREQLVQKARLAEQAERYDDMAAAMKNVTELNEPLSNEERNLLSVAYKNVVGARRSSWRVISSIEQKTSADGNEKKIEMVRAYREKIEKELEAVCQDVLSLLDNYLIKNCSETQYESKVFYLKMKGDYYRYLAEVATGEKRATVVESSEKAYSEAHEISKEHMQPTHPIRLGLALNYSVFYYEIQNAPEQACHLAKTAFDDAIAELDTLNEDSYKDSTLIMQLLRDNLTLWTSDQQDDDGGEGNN
Conditions: fluorescein-labeled peptide 1 nM, 20 mM MOPS pH 7, 150 mM NaCl, 0.005% CHAPS, at least three independent measurements, read-out: Binding affinity (KD) toward 14-3-3 isoform γ. The essentials: as §1

A further test addresses T5, human 14-3-3 isoform η (Homo sapiens, UniProt Q04917).
T5 construct: MBP (cleaved yes); made in house; host or cells: E. coli BL21DE3
Conditions: fluorescein-labeled peptide 1 nM, 20 mM MOPS pH 7, 150 mM NaCl, 0.005% CHAPS, at least three independent measurements, read-out: Binding affinity (KD) toward 14-3-3 isoform η. In outline:
as §1

The next test has as its target T6, human 14-3-3 isoform σ (Homo sapiens, UniProt P31947).
T6 construct: MBP (cleaved yes); made in house; host or cells: E. coli BL21DE3
T6 sequence (P31947 1-248): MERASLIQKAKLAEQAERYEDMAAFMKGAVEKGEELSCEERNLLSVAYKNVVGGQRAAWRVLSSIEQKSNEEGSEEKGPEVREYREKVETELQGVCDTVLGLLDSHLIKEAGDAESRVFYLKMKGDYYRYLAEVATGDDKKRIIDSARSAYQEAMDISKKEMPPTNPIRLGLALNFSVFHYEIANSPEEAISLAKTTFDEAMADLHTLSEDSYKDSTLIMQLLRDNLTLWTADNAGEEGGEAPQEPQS
Conditions: fluorescein-labeled peptide 1 nM, 20 mM MOPS pH 7, 150 mM NaCl, 0.005% CHAPS, at least three independent measurements, read-out: Binding affinity (KD) toward 14-3-3 isoform σ. In outline:
as §1

The target in a further test is T7, human 14-3-3 isoform θ (Homo sapiens, UniProt P27348).
T7 construct: MBP (cleaved yes); made in house; host or cells: E. coli BL21DE3
T7 sequence (P27348 whole entry, canonical isoform): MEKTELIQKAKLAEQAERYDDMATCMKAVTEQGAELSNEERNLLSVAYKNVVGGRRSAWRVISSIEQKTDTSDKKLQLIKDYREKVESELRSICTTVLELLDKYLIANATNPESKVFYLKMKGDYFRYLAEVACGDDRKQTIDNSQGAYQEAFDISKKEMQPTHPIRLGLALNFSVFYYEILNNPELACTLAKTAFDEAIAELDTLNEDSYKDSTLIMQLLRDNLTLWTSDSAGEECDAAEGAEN
Conditions: fluorescein-labeled peptide 1 nM, 20 mM MOPS pH 7, 150 mM NaCl, 0.005% CHAPS, at least three independent measurements, read-out: Binding affinity (KD) toward 14-3-3 isoform θ. The essentials:
as §1

T5 sequence (Q04917 whole entry, canonical isoform): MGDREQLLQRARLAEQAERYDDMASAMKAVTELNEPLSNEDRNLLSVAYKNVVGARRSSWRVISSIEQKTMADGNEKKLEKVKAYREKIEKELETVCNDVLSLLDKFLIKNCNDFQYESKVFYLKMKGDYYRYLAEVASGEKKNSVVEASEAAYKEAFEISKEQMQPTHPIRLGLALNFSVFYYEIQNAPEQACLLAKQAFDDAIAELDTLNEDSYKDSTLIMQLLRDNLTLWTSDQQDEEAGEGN
T1 sequence (P31946 whole entry, canonical isoform): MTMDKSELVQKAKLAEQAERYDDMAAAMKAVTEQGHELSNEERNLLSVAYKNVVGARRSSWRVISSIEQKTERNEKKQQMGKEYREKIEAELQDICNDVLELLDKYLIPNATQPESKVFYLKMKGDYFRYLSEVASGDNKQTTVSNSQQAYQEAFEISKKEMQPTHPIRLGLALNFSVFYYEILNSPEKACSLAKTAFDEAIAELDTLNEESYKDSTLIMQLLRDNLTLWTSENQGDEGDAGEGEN
T2 sequence (P63104 whole entry, canonical isoform): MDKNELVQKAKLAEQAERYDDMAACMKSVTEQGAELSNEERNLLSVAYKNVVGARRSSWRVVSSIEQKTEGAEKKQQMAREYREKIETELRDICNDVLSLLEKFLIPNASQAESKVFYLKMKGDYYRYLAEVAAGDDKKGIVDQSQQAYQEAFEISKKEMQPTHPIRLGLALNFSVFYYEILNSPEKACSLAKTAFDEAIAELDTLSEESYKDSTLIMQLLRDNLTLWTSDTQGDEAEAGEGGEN

For orientation: Kd means the constant that tells how readily two partners part at equilibrium. Regarding `CC[C@H](C)[C@H](NC(=O)[C@H](CC(N)=O)NC(=O)[C@H](Cc1ccccc1)NC(=O)[C@@H](N)CC(C)C)C(=O)N[C@@H](CCCCN)C(=O)N[C@@H](C)C(=O)N[C@@H](CCCNC(=N)N)C(=O)N[C@@H](C)C(=O)N[C@@H](CO)C(=O)N[C@@H](COP(=O)(O)O)C(=O)N[C@@H](CO)C(=O)N1CCC[C@H]1C(=O)N[C@H](C(=O)N[C@H](C(=O)N[C@@H](CC(C)C)C(=O)N[C@H](C(=O)NCC(=O)N[C@H](C(=O)O)[C@@H](C)O)C(C)C)[C@@H](C)CC)C(C)C` [pS1444] (H-LFNIKARAS[pS]SPVILVGT-OH), the Kd was 183 ± 25 nM on human 14-3-3 isoform β; 476 ± 165 nM at human 14-3-3 isoform ζ; > 1 µM at human 14-3-3 isoform ϵ; 106 ± 4 nM at human 14-3-3γ; 85 ± 10 nM at human 14-3-3 isoform η; 802 ± 261 nM on human 14-3-3 isoform σ. The Kd on human 14-3-3 isoform θ amounted to 195 ± 42 nM.
